Data: DBAASP
In brackets after ≈: the same amount, converted by molar mass.

What was measured:
Experiment in all cases: ≥ marks a high value that may be exact or a test limit, other limits are often not marked, values filed in µg/mL are converted to µM
[1] = test system: Bacillus cereus
[2] = test system: Escherichia coli
[3] = test system: Staphylococcus aureus
[4] = test system: Bacillus subtilis
[5] = test system: Enterococcus faecalis ATCC 29212
[6] = test system: Escherichia coli DH5alpha
[7] = test system: Klebsiella pneumoniae ATCC 13883
[8] = test system: Pseudomonas aeruginosa ATCC 27853
[9] = test system: Salmonella enterica subsp. enterica serovar Typhimurium ATCC 14028
[10] = test system: Staphylococcus aureus ATCC 25923
[11] = test system: Bacillus subtilis KCTC 3068
[12] = test system: Escherichia coli KCTC 1682
[13] = test system: Pseudomonas aeruginosa KCTC 1637
[14] = test system: Salmonella typhimurium KCTC 1926
[15] = test system: Staphylococcus aureus KCTC 1621
[16] = test system: Staphylococcus epidermidis KCTC 1917

| MIC [1] | MIC [2] | MIC [11] | MIC [12] | MIC [13] | MIC [14] | MIC [15] | MIC [16] | SMILES | further results |
| --- | --- | --- | --- | --- | --- | --- | --- | --- | --- |
| ≥ 61.3 µM | 15.3 µM (≈ 32 µg/mL) | – | – | – | – | – | – | CC(C)C[C@H](NC(=O)[C@@H](N)Cc1ccccc1)C(=O)NCC(=O)NCC(=O)N[C@H](C(=O)N[C@@H](Cc1ccccc1)C(=O)N[C@@H](CCCCN)C(=O)N[C@@H](CCCCN)C(=O)N[C@@H](C)C(=O)N[C@@H](CO)C(=O)N[C@@H](CCCCN)C(=O)N[C@H](C(=O)N[C@@H](Cc1ccccc1)C(=O)NCC(=O)N[C@@H](C)C(=O)N[C@H](C(=O)N[C@@H](Cc1ccccc1)C(=O)NCC(=O)N[C@@H](CCCCN)C(=O)N[C@H](C(=O)O)C(C)C)C(C)C)C(C)C)C(C)C [FLGGVFKKASKVFGAVFGKV] | MIC [3]: > 123 µM |
| – | – | – | – | – | – | – | – | CC[C@H](C)[C@H](NC(=O)CN)C(=O)NCC(=O)N[C@@H](CCCCN)C(=O)N[C@@H](C)C(=O)N[C@@H](CC(C)C)C(=O)N[C@@H](CCCCN)C(=O)N[C@@H](CCCCN)C(=O)N[C@@H](C)C(=O)N[C@@H](CCCCN)C(=O)N[C@@H](CCCCN)C(=O)NCC(=O)N[C@H](C(=O)NCC(=O)N[C@@H](C)C(=O)N[C@H](C(=O)N[C@@H](CC(C)C)C(=O)N[C@@H](CCCCN)C(=O)N[C@H](C(=O)N[C@@H](CC(C)C)C(=O)N[C@H](C(=O)N[C@H](C(=O)NCC(=O)N[C@@H](CC(C)C)C(=O)O)[C@@H](C)O)[C@@H](C)O)C(C)C)C(C)C)[C@@H](C)CC [GIGKALKKAKKGIGAVLKVLTTGL] | MIC [4]: 8 µM (≈ 18.9 µg/mL); MIC [5]: 32 µM (≈ 75.7 µg/mL); MIC [6]: 15 µM (≈ 35.5 µg/mL); MIC [7]: 8 µM (≈ 18.9 µg/mL); MIC [8]: 45 µM (≈ 106 µg/mL); MIC [9]: 8 µM (≈ 18.9 µg/mL); MIC [10]: 4 µM (≈ 9.46 µg/mL) |
| – | – | 2 µM (≈ 4.8 µg/mL) | 8 µM (≈ 19.2 µg/mL) | 8 µM (≈ 19.2 µg/mL) | 2 µM (≈ 4.8 µg/mL) | 4 µM (≈ 9.6 µg/mL) | 4 µM (≈ 9.6 µg/mL) | CC[C@H](C)[C@H](N)C(=O)NCC(=O)N[C@@H](CCCCN)C(=O)N[C@@H](CCCCN)C(=O)N[C@@H](Cc1ccccc1)C(=O)N[C@@H](CCCCN)C(=O)N[C@@H](CCCN=C(N)N)C(=O)N[C@H](C(=O)N[C@H](C(=O)N[C@@H](CCCCN)C(=O)N[C@@H](CCCN=C(N)N)C(=O)N[C@H](C(=O)N[C@@H](CCCCN)C(=O)N[C@@H](CCCCN)C(=O)N[C@@H](Cc1ccccc1)C(=O)N[C@@H](CC(C)C)C(=O)N[C@@H](CCCN=C(N)N)C(=O)N[C@@H](CCCCN)C(=O)N[C@@H](CC(C)C)C(=O)O)[C@@H](C)CC)C(C)C)[C@@H](C)CC [IGKKFKRIVKRIKKFLRKL] | – |
| – | – | 5.58 µM (≈ 9.99 µg/mL) | 2.79 µM (≈ 5 µg/mL) | 22.3 µM (≈ 40 µg/mL) | 2.79 µM (≈ 5 µg/mL) | 2.79 µM (≈ 5 µg/mL) | 2.79 µM (≈ 5 µg/mL) | CC[C@H](C)[C@H](N)C(=O)N[C@@H](CC(C)C)C(=O)N1CCC[C@H]1C(=O)N[C@@H](Cc1c[nH]c2ccccc12)C(=O)N[C@@H](CCCCN)C(=O)N[C@@H](Cc1c[nH]c2ccccc12)C(=O)N1CCC[C@H]1C(=O)N[C@@H](CCCCN)C(=O)N[C@@H](CCCCN)C(=O)N1CCC[C@H]1C(=O)N[C@@H](Cc1c[nH]c2ccccc12)C(=O)N[C@@H](CCCN=C(N)N)C(=O)N[C@@H](CCCN=C(N)N)C(N)=O [ILPWKWPKKPWRR] | – |
| – | – | 5.16 µM (≈ 10 µg/mL) | 10.3 µM (≈ 20 µg/mL) | 10.3 µM (≈ 20 µg/mL) | 5.16 µM (≈ 10 µg/mL) | 2.58 µM (≈ 5 µg/mL) | 5.16 µM (≈ 10 µg/mL) | CC[C@H](C)[C@H](N)C(=O)N[C@@H](CC(C)C)C(=O)N1CCC[C@H]1C(=O)N[C@@H](Cc1c[nH]c2ccccc12)C(=O)N[C@@H](CCCCN)C(=O)N[C@@H](Cc1c[nH]c2ccccc12)C(=O)N1CCC[C@H]1C(=O)N[C@@H](Cc1c[nH]c2ccccc12)C(=O)N[C@@H](Cc1c[nH]c2ccccc12)C(=O)N[C@@H](CCCCN)C(=O)N[C@@H](Cc1c[nH]c2ccccc12)C(=O)N[C@@H](CCCN=C(N)N)C(=O)N[C@@H](CCCN=C(N)N)C(N)=O [ILPWKWPWWKWRR] | – |
| – | – | 2 µM (≈ 4.67 µg/mL) | 2 µM (≈ 4.67 µg/mL) | 4 µM (≈ 9.34 µg/mL) | 2 µM (≈ 4.67 µg/mL) | 2 µM (≈ 4.67 µg/mL) | 2 µM (≈ 4.67 µg/mL) | C[C@@H](O)[C@H](NC(=O)[C@H](CCCCN)NC(=O)[C@H](Cc1c[nH]c2ccccc12)NC(=O)[C@H](Cc1c[nH]c2ccccc12)NC(=O)[C@@H](NC(=O)[C@H](CCCCN)NC(=O)[C@@H](N)CCCCN)[C@@H](C)O)C(=O)N[C@@H](Cc1c[nH]c2ccccc12)C(=O)N[C@@H](Cc1c[nH]c2ccccc12)C(=O)N[C@H](C(=O)N[C@@H](CCCCN)C(=O)N[C@@H](Cc1c[nH]c2ccccc12)C(=O)N[C@@H](CO)C(=O)N[C@@H](CCC(N)=O)C(=O)N1CCC[C@H]1C(=O)N[C@@H](CCCCN)C(=O)N[C@@H](CCCCN)C(=O)O)[C@@H](C)O [KKTWWKTWWTKWSQPKK] | – |
| ≥ 119 µM | > 119 µM | – | – | – | – | – | – | CC[C@H](C)[C@H](NC(=O)[C@@H](NC(=O)[C@H](CC(C)C)NC(=O)[C@H](C)NC(=O)[C@@H]1CCCN1C(=O)CNC(=O)[C@H](Cc1ccc(O)cc1)NC(=O)[C@@H](N)CCCCN)C(C)C)C(=O)N[C@@H](C)C(=O)N[C@H](C(=O)N[C@@H](CCCCN)C(=O)N[C@@H](CCCCN)C(=O)N[C@@H](CO)C(=O)N[C@@H](CS)C(=O)N[C@@H](CO)C(=O)N[C@@H](CC(C)C)C(=O)N[C@H](C(=O)N[C@@H](Cc1ccccc1)C(=O)N[C@@H](CCCN=C(N)N)C(=O)N[C@@H](C)C(=O)O)[C@@H](C)O)C(C)C [KYGPALVIAVKKSCSLTFRA] | – |
| – | – | 3.79 µM (≈ 6.25 µg/mL) | 7.58 µM (≈ 12.5 µg/mL) | 3.79 µM (≈ 6.25 µg/mL) | 1.9 µM (≈ 3.13 µg/mL) | 7.58 µM (≈ 12.5 µg/mL) | 3.79 µM (≈ 6.25 µg/mL) | CC[C@H](C)[C@H](NC(=O)[C@H](CCCN=C(N)N)NC(=O)[C@@H]1CCCN1C(=O)[C@H](CC(C)C)NC(=O)[C@@H](N)CCCN=C(N)N)C(=O)N[C@@H](Cc1c[nH]c2ccccc12)C(=O)N[C@@H](Cc1c[nH]c2ccccc12)C(=O)N[C@H](C(=O)N[C@@H](CCCN=C(N)N)C(=O)N[C@H](C(=O)N1CCC[C@H]1C(=O)N[C@@H](CCCN=C(N)N)C(N)=O)C(C)C)[C@@H](C)CC [RLPRIWWIRVPR] | – |
| ≥ 121 µM | > 121 µM | – | – | – | – | – | – | CC[C@H](C)[C@H](NC(=O)[C@@H](NC(=O)[C@@H](NC(=O)[C@@H](NC(=O)[C@H](CCCN=C(N)N)NC(=O)[C@H](CCCCN)NC(=O)[C@@H](NC(=O)CNC(=O)[C@@H]1CCCN1C(=O)[C@@H](NC(=O)[C@H](CO)NC(=O)[C@H](Cc1ccccc1)NC(=O)[C@@H](NC(=O)CNC(=O)[C@H](C)NC(=O)[C@H](CC(C)C)NC(=O)[C@@H]1CCCN1C(=O)[C@H](Cc1ccccc1)NC(=O)[C@H](CCCCN)NC(=O)[C@@H](N)CO)[C@@H](C)CC)C(C)C)C(C)C)C(C)C)C(C)C)C(C)C)C(=O)O [SKFPLAGIFSVPGVKRVVVI] | – |
| ≥ 59.4 µM | > 59.4 µM | – | – | – | – | – | – | CC[C@H](C)[C@H](NC(=O)[C@H](Cc1ccccc1)NC(=O)[C@H](CCCCN)NC(=O)[C@H](C)NC(=O)[C@H](CC(C)C)NC(=O)[C@H](CC(=O)O)NC(=O)[C@H](CCCCN)NC(=O)[C@@H](N)C(C)C)C(=O)N[C@@H](C)C(=O)N[C@@H](CCCCN)C(=O)N[C@H](C(=O)N[C@H](C(=O)N[C@@H](C)C(=O)N[C@@H](CCCCN)C(=O)N[C@@H](CCC(N)=O)C(=O)NCC(=O)NCC(=O)N[C@@H](CS)C(=O)N[C@@H](Cc1ccc(O)cc1)C(=O)N[C@@H](CC(C)C)C(=O)O)C(C)C)[C@@H](C)O [VKDLAKFIAKTVAKQGGCYL] | – |
| – | – | 4 µM (≈ 7.78 µg/mL) | 4 µM (≈ 7.78 µg/mL) | 16 µM (≈ 31.1 µg/mL) | 2 µM (≈ 3.89 µg/mL) | 2 µM (≈ 3.89 µg/mL) | 4 µM (≈ 7.78 µg/mL) | CC(C)C[C@H](NC(=O)[C@H](Cc1ccccc1)NC(=O)[C@H](CCCN=C(N)N)NC(=O)[C@H](CCCCN)NC(=O)[C@H](Cc1c[nH]c2ccccc12)NC(=O)[C@H](CCCN=C(N)N)NC(=O)[C@H](CCC(N)=O)NC(=O)[C@@H](NC(=O)[C@H](Cc1c[nH]c2ccccc12)NC(=O)[C@H](CCCN=C(N)N)NC(=O)[C@H](CCCCN)NC(=O)[C@@H](N)Cc1c[nH]c2ccccc12)C(C)C)C(=O)N[C@@H](CCCN=C(N)N)C(N)=O [WKRWVQRWKRFLR] | – |
